Where two headings read alike, the source gives them in different places.
What was measured:
CAMK1G = CAMK1G (Homo sapiens, UniProt Q96NX5); conditions: 0.1 µM; binder
MTOR = MTOR (Homo sapiens, UniProt P42345); conditions: 0.1 µM; binder
HIPK2 = HIPK2 (Homo sapiens, UniProt Q9H2X6); conditions: 0.1 µM; binder
EPHA5 = EPHA5 (Homo sapiens, UniProt P54756); conditions: 0.1 µM; binder
FLT3(K663Q) = FLT3(K663Q) (Homo sapiens, UniProt P36888, K663Q); conditions: 0.1 µM; binder
MYLK2 = MYLK2 (Homo sapiens, UniProt Q9H1R3); conditions: 0.1 µM; binder
CAMKK1 = CAMKK1 (Homo sapiens, UniProt Q8N5S9); conditions: 0.1 µM; binder
FLT3(ITD,F691L) = FLT3(ITD,F691L) (Homo sapiens, UniProt P36888, F691L/ITD); conditions: 0.1 µM; binder
SIK2 = SIK2 (Homo sapiens, UniProt Q9H0K1); conditions: 0.1 µM; binder
DDR1 = DDR1 (Homo sapiens, UniProt Q08345); conditions: 0.1 µM; binder
TYRO3 = TYRO3 (Homo sapiens, UniProt Q06418); conditions: 0.1 µM; binder
PIK3CA(I800L) = PIK3CA(I800L) (Homo sapiens, UniProt P42336, I800L); conditions: 0.1 µM; binder
PRKG2 = PRKG2 (Homo sapiens, UniProt Q13237); conditions: 0.1 µM; binder
FLT4 = FLT4 (Homo sapiens, UniProt P35916); conditions: 0.1 µM; binder
PAK4 = PAK4 (Homo sapiens, UniProt O96013); conditions: 0.1 µM; binder
Sequence of PAK4 (O96013 whole entry): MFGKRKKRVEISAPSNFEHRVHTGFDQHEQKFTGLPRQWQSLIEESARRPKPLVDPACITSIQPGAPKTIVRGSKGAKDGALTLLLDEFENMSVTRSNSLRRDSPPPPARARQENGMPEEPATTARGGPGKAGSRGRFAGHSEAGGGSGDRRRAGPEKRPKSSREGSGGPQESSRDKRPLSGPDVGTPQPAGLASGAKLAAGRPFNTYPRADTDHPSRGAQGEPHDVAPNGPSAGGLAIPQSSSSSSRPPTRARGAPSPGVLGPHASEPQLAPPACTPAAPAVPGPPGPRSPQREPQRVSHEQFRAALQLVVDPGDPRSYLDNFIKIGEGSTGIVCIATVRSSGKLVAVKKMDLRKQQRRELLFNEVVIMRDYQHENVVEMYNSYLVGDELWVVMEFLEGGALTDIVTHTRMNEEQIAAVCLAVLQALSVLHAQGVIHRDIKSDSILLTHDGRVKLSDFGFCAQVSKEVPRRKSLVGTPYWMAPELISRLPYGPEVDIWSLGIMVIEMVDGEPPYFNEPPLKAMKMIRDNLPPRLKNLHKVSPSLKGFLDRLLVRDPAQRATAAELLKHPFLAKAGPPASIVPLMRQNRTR

SNRK = SNRK (Homo sapiens, UniProt Q9NRH2); conditions: 0.1 µM; binder
NEK5 = NEK5 (Homo sapiens, UniProt Q6P3R8); conditions: 0.1 µM; binder
Sequence of NEK5 (Q6P3R8 whole entry): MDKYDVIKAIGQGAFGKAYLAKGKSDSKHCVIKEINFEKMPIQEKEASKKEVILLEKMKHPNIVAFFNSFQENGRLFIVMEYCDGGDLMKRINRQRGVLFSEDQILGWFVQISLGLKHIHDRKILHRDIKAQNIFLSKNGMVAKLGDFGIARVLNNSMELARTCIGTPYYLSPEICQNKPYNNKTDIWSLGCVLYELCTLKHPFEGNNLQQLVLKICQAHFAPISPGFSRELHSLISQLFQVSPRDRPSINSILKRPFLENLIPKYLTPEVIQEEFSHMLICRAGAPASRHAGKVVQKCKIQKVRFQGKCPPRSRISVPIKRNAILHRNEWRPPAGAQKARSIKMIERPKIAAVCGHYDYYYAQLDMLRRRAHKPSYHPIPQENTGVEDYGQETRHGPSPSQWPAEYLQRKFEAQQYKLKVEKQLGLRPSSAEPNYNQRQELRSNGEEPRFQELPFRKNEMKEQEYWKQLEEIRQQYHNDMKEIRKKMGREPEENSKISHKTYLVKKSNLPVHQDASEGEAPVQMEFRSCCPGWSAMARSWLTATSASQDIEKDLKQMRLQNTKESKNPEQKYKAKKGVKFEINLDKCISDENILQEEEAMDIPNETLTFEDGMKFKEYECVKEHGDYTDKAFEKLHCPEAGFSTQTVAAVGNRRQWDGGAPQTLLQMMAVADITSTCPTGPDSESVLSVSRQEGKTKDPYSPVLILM

TRKA = TRKA (Homo sapiens, UniProt P04629); conditions: 0.1 µM; binder
CDK8 = CDK8 (Homo sapiens, UniProt P49336); conditions: 0.1 µM; binder
CAMKK2 = CAMKK2 (Homo sapiens, UniProt Q96RR4); conditions: 0.1 µM; binder
SRPK3 = SRPK3 (Homo sapiens, UniProt Q9UPE1); conditions: 0.1 µM; binder
YANK3 = YANK3 (Homo sapiens, UniProt Q86UX6); conditions: 0.1 µM; binder
Sequence of YANK3 (Q86UX6 whole entry): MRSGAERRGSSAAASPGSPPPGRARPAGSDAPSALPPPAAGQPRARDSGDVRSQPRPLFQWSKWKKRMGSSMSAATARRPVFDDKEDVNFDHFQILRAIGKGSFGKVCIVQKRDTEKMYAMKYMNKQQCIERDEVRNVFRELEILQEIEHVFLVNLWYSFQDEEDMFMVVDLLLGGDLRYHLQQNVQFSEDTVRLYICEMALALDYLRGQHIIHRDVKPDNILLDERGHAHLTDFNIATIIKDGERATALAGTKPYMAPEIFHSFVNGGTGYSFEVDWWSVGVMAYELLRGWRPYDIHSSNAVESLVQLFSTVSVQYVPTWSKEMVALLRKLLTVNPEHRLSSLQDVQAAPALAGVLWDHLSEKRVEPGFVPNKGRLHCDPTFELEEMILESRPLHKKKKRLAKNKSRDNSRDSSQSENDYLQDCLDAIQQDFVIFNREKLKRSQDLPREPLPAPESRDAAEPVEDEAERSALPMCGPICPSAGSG

MYLK4 = MYLK4 (Homo sapiens, UniProt Q86YV6); conditions: 0.1 µM; binder
MAP3K3 = MAP3K3 (Homo sapiens, UniProt Q99759); conditions: 0.1 µM; binder
ABL1 = ABL1 (Homo sapiens, UniProt P00519); conditions: 0.1 µM, binder
Sequence of ABL1 (P00519 whole entry): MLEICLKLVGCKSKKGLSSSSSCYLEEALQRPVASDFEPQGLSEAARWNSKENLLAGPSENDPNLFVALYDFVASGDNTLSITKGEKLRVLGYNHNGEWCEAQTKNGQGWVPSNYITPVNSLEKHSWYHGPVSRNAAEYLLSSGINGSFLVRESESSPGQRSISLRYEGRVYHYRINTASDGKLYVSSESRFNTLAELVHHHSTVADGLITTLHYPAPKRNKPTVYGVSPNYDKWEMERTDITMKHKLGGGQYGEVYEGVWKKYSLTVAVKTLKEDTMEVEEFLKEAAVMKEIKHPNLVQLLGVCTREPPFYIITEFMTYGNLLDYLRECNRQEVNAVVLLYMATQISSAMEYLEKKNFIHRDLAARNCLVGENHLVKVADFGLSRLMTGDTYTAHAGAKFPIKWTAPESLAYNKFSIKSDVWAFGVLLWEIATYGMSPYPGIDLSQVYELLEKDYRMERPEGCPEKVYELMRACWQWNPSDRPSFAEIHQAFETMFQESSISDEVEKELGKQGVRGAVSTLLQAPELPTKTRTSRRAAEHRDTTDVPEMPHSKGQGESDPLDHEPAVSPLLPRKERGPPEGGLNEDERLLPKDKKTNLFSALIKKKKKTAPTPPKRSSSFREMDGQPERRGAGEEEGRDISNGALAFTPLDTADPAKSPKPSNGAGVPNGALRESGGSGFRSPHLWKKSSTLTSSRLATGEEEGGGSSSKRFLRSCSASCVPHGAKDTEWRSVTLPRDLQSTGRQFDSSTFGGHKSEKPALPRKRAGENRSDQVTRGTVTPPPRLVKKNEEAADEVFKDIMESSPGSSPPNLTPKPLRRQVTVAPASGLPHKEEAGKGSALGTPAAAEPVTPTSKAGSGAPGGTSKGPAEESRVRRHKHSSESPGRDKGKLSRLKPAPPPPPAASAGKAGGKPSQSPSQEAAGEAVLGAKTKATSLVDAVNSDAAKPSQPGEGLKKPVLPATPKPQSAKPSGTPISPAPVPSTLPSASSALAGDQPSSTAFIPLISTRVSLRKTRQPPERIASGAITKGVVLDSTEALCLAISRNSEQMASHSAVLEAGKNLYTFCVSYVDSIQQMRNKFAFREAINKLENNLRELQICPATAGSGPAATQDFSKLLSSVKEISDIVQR

MYLK = MYLK (Homo sapiens, UniProt Q15746); conditions: 0.1 µM; binder
ALK = ALK (Homo sapiens, UniProt Q9UM73); conditions: 0.1 µM; binder
MKK7 = MKK7 (Homo sapiens, UniProt O14733); conditions: 0.1 µM; binder
Sequence of MKK7 (O14733 whole entry): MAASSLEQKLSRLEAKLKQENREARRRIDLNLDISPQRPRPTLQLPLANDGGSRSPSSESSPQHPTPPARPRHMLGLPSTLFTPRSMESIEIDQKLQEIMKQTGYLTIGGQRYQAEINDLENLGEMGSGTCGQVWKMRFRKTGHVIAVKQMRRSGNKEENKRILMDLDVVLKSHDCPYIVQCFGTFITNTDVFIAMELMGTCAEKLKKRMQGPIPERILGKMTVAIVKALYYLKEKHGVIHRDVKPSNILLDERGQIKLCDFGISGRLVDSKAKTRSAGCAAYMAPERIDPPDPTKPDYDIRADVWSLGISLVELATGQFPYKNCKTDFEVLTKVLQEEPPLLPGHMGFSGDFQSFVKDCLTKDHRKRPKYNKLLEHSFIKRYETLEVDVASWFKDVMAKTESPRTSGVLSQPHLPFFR

MKNK1 = MKNK1 (Homo sapiens, UniProt Q9BUB5); conditions: 0.1 µM; binder
PCTK1 = PCTK1 (Homo sapiens, UniProt Q00536); conditions: 0.1 µM; binder
Sequence of PCTK1 (Q00536 whole entry): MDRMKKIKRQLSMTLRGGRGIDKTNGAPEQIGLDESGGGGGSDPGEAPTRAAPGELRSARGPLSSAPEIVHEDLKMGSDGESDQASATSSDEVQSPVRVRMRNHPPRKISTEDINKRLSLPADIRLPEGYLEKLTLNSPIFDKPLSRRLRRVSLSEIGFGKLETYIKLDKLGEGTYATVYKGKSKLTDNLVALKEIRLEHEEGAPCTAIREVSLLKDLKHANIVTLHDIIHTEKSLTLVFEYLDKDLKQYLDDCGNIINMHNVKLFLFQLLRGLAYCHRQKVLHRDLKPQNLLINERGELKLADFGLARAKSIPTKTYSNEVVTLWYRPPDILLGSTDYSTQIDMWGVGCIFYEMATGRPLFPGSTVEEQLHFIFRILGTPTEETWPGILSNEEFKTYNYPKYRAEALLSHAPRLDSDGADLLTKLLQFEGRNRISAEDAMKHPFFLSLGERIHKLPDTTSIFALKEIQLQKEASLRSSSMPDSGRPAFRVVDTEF

AAK1 = AAK1 (Homo sapiens, UniProt Q2M2I8); conditions: 0.1 µM; binder

Sequence of HIPK2 (Q9H2X6 whole entry): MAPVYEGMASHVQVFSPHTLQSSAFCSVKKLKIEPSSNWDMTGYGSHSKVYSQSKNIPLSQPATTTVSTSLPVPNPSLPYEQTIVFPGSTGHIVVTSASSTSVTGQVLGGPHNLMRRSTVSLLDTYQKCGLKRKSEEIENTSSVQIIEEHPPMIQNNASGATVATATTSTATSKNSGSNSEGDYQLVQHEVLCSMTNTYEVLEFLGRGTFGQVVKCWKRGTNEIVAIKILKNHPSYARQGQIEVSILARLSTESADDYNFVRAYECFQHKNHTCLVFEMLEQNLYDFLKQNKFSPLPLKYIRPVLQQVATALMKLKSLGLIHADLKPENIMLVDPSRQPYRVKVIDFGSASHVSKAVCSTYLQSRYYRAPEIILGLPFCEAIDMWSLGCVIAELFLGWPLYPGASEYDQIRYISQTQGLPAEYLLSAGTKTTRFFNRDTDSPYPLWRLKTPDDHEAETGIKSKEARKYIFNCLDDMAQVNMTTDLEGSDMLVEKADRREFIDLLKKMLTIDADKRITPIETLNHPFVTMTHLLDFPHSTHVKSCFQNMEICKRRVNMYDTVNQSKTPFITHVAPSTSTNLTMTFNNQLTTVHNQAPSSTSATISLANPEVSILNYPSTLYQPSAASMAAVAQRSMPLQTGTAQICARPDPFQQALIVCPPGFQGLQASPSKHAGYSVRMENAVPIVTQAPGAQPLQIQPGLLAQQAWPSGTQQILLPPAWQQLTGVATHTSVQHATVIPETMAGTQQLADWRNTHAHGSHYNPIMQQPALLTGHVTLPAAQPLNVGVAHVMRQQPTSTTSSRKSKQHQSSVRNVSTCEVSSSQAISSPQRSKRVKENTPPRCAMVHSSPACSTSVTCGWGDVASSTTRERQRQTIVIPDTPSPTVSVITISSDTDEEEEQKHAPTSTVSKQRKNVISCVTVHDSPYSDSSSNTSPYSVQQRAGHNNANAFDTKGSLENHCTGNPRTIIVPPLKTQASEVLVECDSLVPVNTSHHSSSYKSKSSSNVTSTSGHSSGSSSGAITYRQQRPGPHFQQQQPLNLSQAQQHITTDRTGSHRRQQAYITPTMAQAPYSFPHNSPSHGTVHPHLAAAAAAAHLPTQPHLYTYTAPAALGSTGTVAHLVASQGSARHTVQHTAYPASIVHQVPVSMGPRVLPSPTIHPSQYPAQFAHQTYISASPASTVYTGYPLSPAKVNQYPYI

CNc1ncc2cc(-c3ccc(-c4cccc(C)n4)cc3Cl)c(=O)n(C[C@H]3OC[C@H](N)CO3)c2n1 [compound 6, G-5555]
Percent Control (CAMK1G): 100% | Percent Control (MTOR): 83% | Percent Control (HIPK2): 100% | Percent Control (EPHA5): 100% | Percent Control (FLT3(K663Q)): 100% | Percent Control (MYLK2): 93% | Percent Control (CAMKK1): 100% | Percent Control (FLT3(ITD,F691L)): 56% | Percent Control (SIK2): 6.5% | Percent Control (DDR1): 100% | Percent Control (TYRO3): 96% | Percent Control (PIK3CA(I800L)): 87% | Percent Control (PRKG2): 86% | Percent Control (FLT4): 100% | Percent Control (PAK4): 100% | Percent Control (SNRK): 84% | Percent Control (NEK5): 100% | Percent Control (TRKA): 77% | Percent Control (CDK8): 100% | Percent Control (CAMKK2): 100% | Percent Control (SRPK3): 100% | Percent Control (YANK3): 99% | Percent Control (MYLK4): 100% | Percent Control (MAP3K3): 86% | Percent Control (ABL1; nonphosphorylated): 94% | Percent Control (ABL1; phosphorylated): 95% | Percent Control (MYLK): 75% | Percent Control (ALK): 89% | Percent Control (MKK7): 86% | Percent Control (MKNK1): 100% | Percent Control (PCTK1): 100% | Percent Control (AAK1): 100%

Reference: article doi:10.1101/2021.04.08.439011v1 (biorxiv, 2021)
